Where two headings read alike, the source gives them in different places.
What was measured:
[1] = test system: Phosphorylation of ERK1/2 in A-427 cells; experiment: Phospho-ERK1/2 MSD Assay (A-427 cells); assay type: cell-based; settings: 2 h treatment, read-out: p-ERK (A427 cells) IC50
Experimental: (§1) A-427 (ATCC® HTB-53™) cells were cultured in RPMI 1640 Medium (ThermoFisher Scientific 11875093) containing 10% fetal bovine serum (ThermoFisher Scientific 16000044) and 1× penicillin-streptomycin-glutamine (ThermoFisher Scientific 10378016). Sixteen hours prior to compound treatment, A-427 cells were seeded in 96-well cell culture plates at a density of 25,000 cells/well and incubated at 37° C., 5% CO2. A compound dose-response titration was diluted in growth media, added to appropriate wells of a cell culture plate, and then incubated at 37° C., 5% CO2 for 2 h. Following compound treatment, cells were washed with ice-cold Dulbecco's phosphate-buffered saline, no Ca^2+ or Mg^2+ (ThermoFisher Scientific 14190144), and then lysed in RIPA buffer (50 mM Tris-HCl pH 7.5, 1% Igepal, 0.5% sodium deoxycholate, 150 mM NaCl, and 0.5% sodium dodecyl sulfate) containing protease inhibitors (Roche 4693132001) and phosphatase inhibitors (Roche 4906837001). Phosphorylation of ERK1/2 in compound-treated lysates was assayed using Phospho-ERK1/2 Whole Cell Lysate kits (Meso Scale Discovery K151DWD) according to the manufacturer's protocol. Assay plates were read on a Meso Scale Discovery Sector Imager 6000, and data were analyzed using a 4-parameter logistic model to calculate IC50 values.

[2] = target: GDP-bound KRAS protein (aa 1-169), containing both G12D and C118A amino acid substitutions (Homo sapiens, UniProt P01116, C118A/G12D); experiment: KRAS G12D Coupled Nucleotide Exchange Assay; assay type: biochemical; settings: 2 h compound pre-incubation
Experimental: Following compound pre-incubation, purified SOS protein (aa 564-1049) and GTP (Roche 10106399001) were added to the assay wells and incubated for an additional 30 min. […] The assay plates were then read on a PerkinElmer EnVision Multilabel Reader, using AlphaScreen® technology, and data were analyzed using a 4-parameter logistic model to calculate IC50 values.

[3] = target: His-tagged KRAS G12D protein (Homo sapiens, UniProt P01116, G12D); experiment: KRAS G12D TR-FRET Assay; assay type: binding
Experimental: Compounds of interest were prepared in a dose-response titration in DMSO, and 80 nL were added via Labcyte Echo to each well of a 384-well plate (Perkin Elmer 6008280). […] The plate was incubated for 30 minutes at room temperature. Biotinylated KRPep-2d substrate (Amgen) was diluted to 20 nM in Assay Buffer and 2 μL was added to all wells and incubated for 1 h at room temperature. Detection Reagent (0.4 nM LANCE Eu-W1024 Anti-6xHis (Perkin Elmer AD0401), 5 nM streptavidin-d2 (Cisbio 610SADLA)) was prepared in Assay Buffer, then 4 μL was added to the plate and incubated for 1 h at room temperature. Plates were read using PerkinElmer EnVision (ex: 320 nm, em1: 665 nm, em2: 615 nm) and em1/em2 data was used to generate curve fits using a 4-parameter logistic model to calculate IC50 values.

[4] = test system: Phosphorylation of ERK1/2 in AsPC-1 cells; experiment: Phospho-ERK1/2 MSD Assay (AsPC-1 cells); assay type: cell-based; settings: 2 hours treatment, read-out: p-ERK (AsPC-1 cells) IC50
Experimental: as §1, with “AsPC-1” for “A-427”, “CRL-1682™)” for “HTB-53™)”, “hours.” for “h.”

Sequence of His-tagged KRAS G12D protein (P01116 1-188 isoform P01116-2 G12D): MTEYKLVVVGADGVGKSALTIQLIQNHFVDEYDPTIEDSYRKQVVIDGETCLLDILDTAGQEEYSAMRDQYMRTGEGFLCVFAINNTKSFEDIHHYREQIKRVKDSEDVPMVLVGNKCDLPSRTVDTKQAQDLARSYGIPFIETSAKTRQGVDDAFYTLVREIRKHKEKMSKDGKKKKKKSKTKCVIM
Sequence of GDP-bound KRAS protein (aa 1-169), containing both G12D and C118A amino acid substitutions (P01116 1-169 isoform P01116-2 G12D/C118A): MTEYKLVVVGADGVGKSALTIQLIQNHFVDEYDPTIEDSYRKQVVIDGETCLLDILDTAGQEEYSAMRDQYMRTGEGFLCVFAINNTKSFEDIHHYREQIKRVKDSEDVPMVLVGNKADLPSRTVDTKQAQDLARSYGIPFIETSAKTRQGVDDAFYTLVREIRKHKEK

Row | SMILES | IC50 ([1]; Homo sapiens, A-427, 2 h) [nM] | Avg 2 h Coupled Exchange IC50 [2] [nM] | IC50 [3] [nM] | IC50 ([4]; Homo sapiens, ASPC1, 2 h) [nM] | IC50 [1] [nM] | IC50 [4] [nM]
1 | CCc1c(F)ccc2cc(O)cc(-c3c(F)cc4c(N5CC6CCC(C5)N6)nc(OCC56CCCN5C[C@H](F)C6)nc4c3F)c12 (atropisomer, axis not shown; (M)) [Example 232, (M)-4-(4-((1R,5S)-3,8-diazabicyclo[3.2.1]octan-3-yl)-6,8-difluoro-2-(((2R,7aS)-2-fluorotetrahydro-1H-pyrrolizin-7a(5H)-yl)methoxy)quinazolin-7-yl)-5-ethyl-6-fluoronaphthalen-2-ol] | 3 | 2 | 1 | 8 |  | 
2 | Oc1cc(-c2c(F)cc3c(N4C[C@@H]5CC[C@H]4CN5)nc(OCC45CCCN4C[C@H](F)C5)nc3c2F)c2c(F)c(F)ccc2c1 (atropisomer, axis not shown; (M)) [Example 233, (M)-4-(4-((1S,4S)-2,5-Diazabicyclo[2.2.2]octan-2-yl)-6,8-difluoro-2-(((2R,7aS)-2-fluorotetrahydro-1H-pyrrolizin-7a(5H)-yl)methoxy)quinazolin-7-yl)-5,6-difluoronaphthalen-2-ol] | 5 | 1 | 1 | 27 |  | 
3 | CCc1c(F)ccc2cc(O)cc(-c3c(F)cc4c(N5C6CCC5C(=O)NC6)nc(OC[C@@]56CCCN5C[C@H](F)C6)nc4c3F)c12 (single isomer, unassigned) [Example 175] | 448 | 4 | 6 | 1560 |  | 
4 | CCc1c(F)ccc2cc(O)cc(-c3c(F)cc4c(N5C6CCC5C(=O)NC6)nc(OC[C@@]56CCCN5C[C@H](F)C6)nc4c3F)c12 (single isomer, unassigned) [Example 176] |  | 7 | 11 |  | 545 | 2650
5 | Cc1c(-c2cc(O)cc3ccccc23)ccc2c(N3CC4CCC(C3)N4)nc(OCC34CCCN3C[C@H](F)C4)nc12 (stereo in doubt) [Example 32, 4-(4-((1R,5S)-3,8-diazabicyclo[3.2. 1]octan-3-yl)-2-(((2R,7aS)-2-fluorotetrahydro-1H-pyrrolizin-7a(5H)-yl)methoxy)-8-methylquinazolin-7-yl)naphthalen-2-ol] | 341 | 2 | 5 | 712 |  | 
6 | Oc1cc(Cl)c(C2CC2)c(-c2c(F)cc3c(N4CC5CCC4CN5)nc(OC[C@@]45CCCN4C[C@H](F)C5)nc3c2F)c1 (stereo in doubt) [Example 143, 3-(4-((1R,4R)-2,5-diazabicyclo[2.2.2]octan-2-yl)-6,8-difluoro-2-(((2R,7aS)-2-fluorotetrahydro-1H-pyrrolizin-7a(5H)-yl)methoxy)quinazolin-7-yl)-5-chloro-4-cyclopropylphenol] | 13 | 3 | 3 | 46 |  | 
7 | Oc1cc(-c2ccc3c(N4[C@@H]5CC[C@H]4CNC5)nc(OC[C@@]45CCCN4C[C@H](F)C5)nc3c2F)c2ccccc2c1 [Example 1, 4-(4-((1R,5S)-3,8-Diazabicyclo[3.2.1]octan-8-yl)-8-fluoro-2-(((2R,7aS)-2-fluorotetrahydro-1H-pyrrolizin-7a(5H)-yl)methoxy)quinazolin-7-yl)naphthalen-2-ol] | 171 | 3 | 4 | 420 |  | 
8 | Oc1cc(-c2ccc3c(N4[C@@H]5CNC[C@H]4COC5)nc(OC[C@@]45CCCN4C[C@H](F)C5)nc3c2F)c2ccccc2c1 [Example 2, 4-(4-((1R,5S)-3-oxa-7,9-diazabicyclo[3.3. 1]nonan-9-yl)-8-fluoro-2-(((2R,7aS)-2-fluorotetrahydro-1H-pyrrolizin-7a(5H)-yl)methoxy)quinazolin-7-yl)naphthalen-2-ol] | 222 | 4 | 7 | 721 |  | 
9 | Oc1cc(-c2ccc3c(N4[C@@H]5CC[C@H]4CNC5)nc(OC[C@]45CCCN4C[C@H](F)C5)nc3c2F)c2ccccc2c1 [Example 3, 4-(4-((1R,5S)-3,8-diazabicyclo[3.2. 1]octan-8-yl)-8-fluoro-2-(((2R,7aR)-2-fluorotetrahydro-1H-pyrrolizin-7a(5H)-yl)methoxy)quinazolin-7-yl)naphthalen-2-ol] | 650 | 5 | 10 | 812 |  | 
10 | Oc1cc(-c2ccc3c(N4C[C@H]5C[C@@H](C4)N5)nc(OC[C@@]45CCCN4C[C@H](F)C5)nc3c2F)c2ccccc2c1 [Example 4, 4-(4-((1R,5S)-3,6-diazabicyclo[3.1. 1]heptan-3-yl)-8-fluoro-2-(((2R,7aS)-2-fluorotetrahydro-1H-pyrrolizin-7a(5H)-yl)methoxy)quinazolin-7-yl)naphthalen-2-ol] | 294 | 7 | 5 | 1230 |  | 
11 | Cc1c(-c2cc(O)cc3ccccc23)ccc2c(N3C[C@H]4C[C@@H](C3)N4)nc(OC[C@@]34CCCN3C[C@H](F)C4)nc12 [Example 5, 4-(4-((1R,5S)-3,6-diazabicyclo[3.1. 1]heptan-3-yl)-2-(((2R,7aS)-2-fluorotetrahydro-1H-pyrrolizin-7a(5H)-yl)methoxy)-8-methylquinazolin-7-yl)naphthalen-2-ol] | 2150 | 19 | 43 | 2970 |  | 
12 | Oc1cc(-c2c(F)cc3c(N4[C@@H]5CC[C@H]4CNC5)nc(OC[C@@]45CCCN4C[C@H](F)C5)nc3c2F)c2ccccc2c1 [Example 12, 4-(4-((1R,5S)-3,8-diazabicyclo[3.2. 1]octan-8-yl)-6,8-difluoro-2-(((2R,7aS)-2-fluorotetrahydro-1H-pyrrolizin-7a(5H)-yl)methoxy)quinazolin-7-yl)naphthalen-2-ol] | 90 |  |  | 293 |  | 
13 | Oc1cc(-c2c(F)cc3c(N4C[C@H]5CC[C@@H](C4)N5)nc(OC[C@]45CCCN4C[C@H](F)C5)nc3c2F)c2ccccc2c1 [Example 43, 4-(4-((1R,5S)-3,8-diazabicyclo[3.2. 1]octan-3-yl)-6,8-difluoro-2-(((2R,7aR)-2-fluorotetrahydro-1H-pyrrolizin-7a(5H)-yl)methoxy)quinazolin-7-yl)naphthalen-2-ol] | 16 |  |  | 90 |  | 
14 | Oc1cc(-c2c(F)cc3c(N4C[C@H]5CC[C@@H](C4)N5)nc(OC[C@@]45CCCN4C[C@H](F)C5)nc3c2F)c2ccccc2c1 [Example 47, 4-(4-((1R,5S)-3,8-diazabicyclo[3.2. 1]octan-3-yl)-6,8-difluoro-2-(((2R,7aS)-2-fluorotetrahydro-1H-pyrrolizin-7a(5H)-yl)methoxy)quinazolin-7-yl)naphthalen-2-ol] | 11 |  |  |  |  | 
